Laboratory results reported in patent US10202377B2, “3-(1H-benzo[D]imidazol-2-yl)-1H-pyrazolo[3,4-C]pyridine and therapeutic uses thereof” (Samumed, LLC, priority 2014, dated 2019).

Tests used:
[1] = tested on: Wnt activity (Sp5-Luc reporter, SW480 colon carcinoma cells); experiment: Sp5-Luc Wnt reporter gene screening assay in SW480 colon carcinoma cells; settings: Homo sapiens
[2] = tested on: primary human fibroblasts derived from IPF patients (LL29 cells); experiment: Inhibition of fibrosis (αSMA staining) in TGF-β1-treated primary human fibroblasts from IPF patients; type: cell-based; settings: Fibroblast, 96 h, TGF-β1 20 ng/mL, 4 days
Protocol: The above synthesized compounds were screened using primary human fibroblasts (derived from IPF patients) treated with TGF-β1 to determine their ability to inhibit the fibrotic process.
Compound Screening: Each compound was dissolved in DMSO as a 10 mM stock and used to prepare compound source plates. […] LL29 cells were plated at 1,500 cells/well in 80 μl/well F12 medium supplemented with 1% Fetal Bovine Serum. One hour after addition of the cells, TGF-β1 (Peprotech; 20 ng/mL) was added to the plates to induce fibrosis (ref. 1 and 2 above). Wells treated with TGF-β1 and containing DMSO were used as controls. Cells were incubated at 37° C. and 5% CO2 for 4 days. Following incubation for 4 days, SYTOX green nucleic acid stain (Life Technologies [Thermo Fisher Scientific]) was added to the wells at a final concentration of 1 uM and incubated at room temperature for 30 min. Cells were then fixed using 4% formaldehyde (Electron Microscopy Sciences), washed 3 times with PBS followed by blocking and permeabilization using 3% Bovine Serum Albumin (BSA; Sigma) and 0.3% Triton X-100 (Sigma) in PBS. Cells were then stained with antibody specific to α-smooth muscle actin (aSMA; Abcam) (ref. 1 and 2 above) in 3% Bovine Serum Albumin (BSA; Sigma) and 0.3% Triton X-100 (Sigma) in PBS, and incubated overnight at 4° C. […] Dead or apoptotic cells were excluded from analysis based on positive SYTOX green staining. % of total cells positive for αSMA were counted in each well and normalized to the average of 11 wells treated with TGF-β1 on the same plate using Dotmatics' Studies Software. […] The EC50 values are reported.

SMILES: O=C(Nc1cncc(-c2cc3c(-c4nc5c(-c6ccccn6)cccc5[nH]4)n[nH]c3cn2)c1)c1ccccc1 [Compound 141, N-(5-(3-(4-(Pyridin-2-yl)-1H-benzo[d]imidazol-2-yl)-1H-pyrazolo[3,4-c]pyridin-5-yl)pyridin-3-yl)benzamide]
- IC50 [1]: 411 nM
- EC50 [2]: 39 nM

SMILES: FC1(F)CCN(Cc2cncc(-c3cc4c(-c5nc6c(-c7cccs7)cccc6[nH]5)n[nH]c4cn3)c2)C1 [Compound 337, 5-(5-((3,3-Difluoropyrrolidin-1-yl)methyl)pyridin-3-yl)-3-(4-(thiophen-2-yl)-1H-benzo[d]imidazol-2-yl)-1H-pyrazolo[3,4-c]pyridine]
- IC50 [1]: 90.8 nM
- EC50 [2]: 9 nM

SMILES: Cc1cn(-c2cccc3[nH]c(-c4n[nH]c5cnc(-c6cncc(NC(=O)C(C)(C)C)c6)cc45)nc23)cn1 [Compound 190, N-(5-(3-(4-(4-Methyl-1H-imidazol-1-yl)-1H-benzo[d]imidazol-2-yl)-1H-pyrazolo[3,4-c]pyridin-5-yl)pyridin-3-yl)pivalamide]
- IC50 [1]: 53.5 nM
- EC50 [2]: 9 nM

SMILES: CCCCC(=O)Nc1cncc(-c2cc3c(-c4nc5c(-c6ccccn6)cccc5[nH]4)n[nH]c3cn2)c1 [Compound 148, N-(5-(3-(4-(Pyridin-2-yl)-1H-benzo[d]imidazol-2-yl)-1H-pyrazolo[3,4-c]pyridin-5-yl)pyridin-3-yl)pentanamide]
- IC50 [1]: 177 nM
- EC50 [2]: 225 nM

SMILES: Cc1ccc(-c2cccc3[nH]c(-c4n[nH]c5cnc(-c6cncc(NC(=O)C7CCCC7)c6)cc45)nc23)s1 [Compound 385, N-(5-(3-(4-(5-Methylthiophen-2-yl)-1H-benzo[d]imidazol-2-yl)-1H-pyrazolo[3,4-c]pyridin-5-yl)pyridin-3-yl)cyclopentanecarboxamide]
- IC50 [1]: 33.1 nM
- EC50 [2]: 20 nM

SMILES: CCC(=O)Nc1cncc(-c2cc3c(-c4nc5c(N6CCCCC6)cccc5[nH]4)n[nH]c3cn2)c1 [Compound 157, N-(5-(3-(4-(Piperidin-1-yl)-1H-benzo[d]imidazol-2-yl)-1H-pyrazolo[3,4-c]pyridin-5-yl)pyridin-3-yl)propionamide]
- IC50 [1]: 97.2 nM
- EC50 [2]: 99 nM

SMILES: CC(=O)c1ccc(-c2cccc3[nH]c(-c4n[nH]c5cnc(-c6cncc(NC(=O)Cc7ccccc7)c6)cc45)nc23)s1 [Compound 400, N-(5-(3-(4-(5-Acetylthiophen-2-yl)-1H-benzo[d]imidazol-2-yl)-1H-pyrazolo[3,4-c]pyridin-5-yl)pyridin-3-yl)-2-phenylacetamide]
- IC50 [1]: 42.3 nM
- EC50 [2]: 218 nM

SMILES: FC1(F)CCN(Cc2cncc(-c3cc4c(-c5nc6c(N7CCCCC7)cccc6[nH]5)n[nH]c4cn3)c2)C1 [Compound 181, 5-(5-((3,3-Difluoropyrrolidin-1-yl)methyl)pyridin-3-yl)-3-(4-(piperidin-1-yl)-1H-benzo[d]imidazol-2-yl)-1H-pyrazolo[3,4-c]pyridine]
- IC50 [1]: 87.1 nM
- EC50 [2]: 9 nM

SMILES: CC(=O)c1ccc(-c2cccc3[nH]c(-c4n[nH]c5cnc(-c6cccnc6)cc45)nc23)s1 [Compound 394, 1-(5-(2-(5-(Pyridin-3-yl)-1H-pyrazolo[3,4-c]pyridin-3-yl)-1H-benzo[d]imidazol-4-yl)thiophen-2-yl)ethan-1-one]
- IC50 [1]: 44.3 nM
- EC50 [2]: 110 nM

SMILES: CCCC(=O)Nc1cncc(-c2cc3c(-c4nc5c(-c6ccsc6)cccc5[nH]4)n[nH]c3cn2)c1 [Compound 277, N-(5-(3-(4-(Thiophen-3-yl)-1H-benzo[d]imidazol-2-yl)-1H-pyrazolo[3,4-c]pyridin-5-yl)pyridin-3-yl)butyramide]
- IC50 [1]: 43.5 nM
- EC50 [2]: 9 nM

SMILES: CC(C)Nc1cncc(-c2cc3c(-c4nc5c(-c6ccoc6)cccc5[nH]4)n[nH]c3cn2)c1 [Compound 298, 5-(3-(4-(Furan-3-yl)-1H-benzo[d]imidazol-2-yl)-1H-pyrazolo[3,4-c]pyridin-5-yl)-N-isopropylpyridin-3-amine]
- IC50 [1]: 12.9 nM
- EC50 [2]: 9 nM
